Measured values: ChEMBL document CHEMBL5042510, “Structure-Guided Discovery of Aminoquinazolines as Brain-Penetrant and Selective LRRK2 Inhibitors” (J Med Chem, 2022)
Values after ≈ are worked out from the molar mass of the structure shown.

Experiments:
[1] = Cardiotoxicity in guinea pig assessed as increase in QTc level at 157X unbound EM infused via iv consecutively for 20 mins; assay type: toxicity, organism-based, Cavia porcellus; conditions: in vivo
[2] = Unbound brain-to-plasma concentration ratio in rat at 2.5 uM incubated for 4 hrs by equilibrium dialysis method; assay type: ADME, cell-free; conditions: brain and plasma (unbound), read-out: K(p,uu,brain)
[3] = tested on: Leucine-rich repeat serine/threonine-protein kinase 2 (Homo sapiens), Q5S007 [G2019S]; experiment: Inhibition of LRRK2 […] mutant expressed in human SH-SY5Y cells assessed as unbound concentration required for inhibition of phosphorylation of LRRK2 at Ser935 residue incubated for 90 mins by MSD assay; assay type: cell-based
rat Mdr1a (P-gp) [4] = experiment: Efflux ratio of apparent permeability across basolateral to apical side over apical to basolateral side in rat Mdr1a-transfected pig LLC-PK1 cells at 0.1 to 1 uM measured after 3 hrs by LC/MS/MS analysis; assay type: ADME, cell-based, Sus scrofa; conditions: dose 0.1-1 µM
rat Mdr1a (P-gp) [5] = experiment: Apparent permeability from apical to basolateral side in rat Mdr1a-transfected pig LLC-PK1 cells at 0.1 to 1 uM measured after 3 hrs by LC/MS/MS analysis; assay type: ADME, cell-based, Sus scrofa; conditions: dose 0.1-1 µM
[6] = Intrinsic clearance in human hepatocytes at 0.3 uM incubated for 90 mins by LC/MS/MS analysis; assay type: ADME, cell-based, Hepatocyte; conditions: read-out: CLH
[7] = Intrinsic clearance in rat hepatocytes at 0.3 uM incubated for 90 mins by LC/MS/MS analysis; assay type: ADME, cell-based, Hepatocyte; conditions: read-out: CLH
[8] = Intrinsic clearance in Wistar Han rat at 2 mg/kg, iv by LC-MS/MS analysis; assay type: ADME, organism-based; conditions: in vivo
[9] = MRT in Wistar Han rat at 2 mg/kg, iv by LC-MS/MS analysis; assay type: ADME, organism-based; conditions: in vivo
[10] = Oral bioavailability in Beagle dog at 0.5 mg/kg by LC-MS/MS analysis; assay type: ADME, organism-based, Canis lupus familiaris; conditions: in vivo
[11] = biological target: Voltage-gated inwardly rectifying potassium channel KCNH2 (Homo sapiens, UniProt Q12809); experiment: Inhibition of human ERG by voltage clamp assay; assay type: toxicity
Salmonella typhimurium = experiment: Mutagenicity in Salmonella typhimurium TA100 at 30 to 5000 ug incubated for 48 hrs in presence of liver S9 fraction by AMES test; assay type: toxicity, organism-based, Salmonella enterica subsp. enterica serovar Typhimurium; conditions: s9, 48 h, dose 30-5000 µg
[12] = biological target: Leucine-rich repeat serine/threonine-protein kinase 2 (Homo sapiens) (UniProt Q5S007); experiment: Ex vivo inhibition of LRRK2 in human PBMC assessed as unbound concentration required for reduction in LRRK2 phosphorylation at Ser935 residue incubated for 90 mins by MSD assay; assay type: cell-based
[13] = Total plasma clearance in Beagle dog at 1 mg/kg, iv by LC-MS/MS analysis; assay type: ADME, organism-based, Canis lupus familiaris
[14] = Total plasma clearance in Rhesus monkey at 3 mg/kg, iv by LC-MS/MS analysis; assay type: ADME, organism-based, Macaca mulatta
[15] = MRT in Rhesus monkey at 3 mg/kg, iv by LC-MS/MS analysis; assay type: ADME, organism-based, Macaca mulatta; conditions: in vivo
[16] = MRT in Beagle dog at 1 mg/kg, iv by LC-MS/MS analysis; assay type: ADME, organism-based, Canis lupus familiaris; conditions: in vivo
[17] = Unbound fraction in CD rat brain at 1 to 100 mg/kg, po measured after 120 mins by LC/MS/MS analysis; assay type: ADME, organism-based; conditions: in vivo, 2 h, dose 1-100 mg/kg
[18] = Unbound fraction in CD rat plasma at 1 to 100 mg/kg, po measured after 120 mins by LC/MS/MS analysis; assay type: ADME, organism-based; conditions: in vivo, 2 h, dose 1-100 mg/kg
[19] = biological target: Mitogen-activated protein kinase 3 (Homo sapiens, UniProt P27361); experiment: Inhibition of ERK1 (unknown origin)
Substance-P receptor = Substance-P receptor (Homo sapiens, UniProt P25103); experiment: Inhibition of tachykinin NK1 receptor (unknown origin)
[20] = Genotoxicity in CHO-WBL cells incubated for 3 hrs in presence of liver S9 extract by invitro micronucleus test; assay type: toxicity, Cricetulus griseus; conditions: chinese hamster, s9, 3 h
[21] = Cardiotoxicity in telemetered Wistar Han rat assessed as NOAEL at 30 mg/kg, po; assay type: toxicity, organism-based; conditions: in vivo
[22] = Cardiotoxicity in telemetered Wistar Han rat assessed as elevation of diastolic blood pressure at 100 mg/kg, po; assay type: toxicity, organism-based; conditions: in vivo
[23] = Unbound brain-to-plasma concentration ratio in rat at 10 mg/kg, po qd for 4 days by LC/MS/MS analysis; assay type: ADME, organism-based; conditions: brain and plasma (unbound), time 4 day, read-out: K(p,uu,brain)
[24] = Thermodynamic solubility of the compound in FaSSIF measured after 24 hrs by reverse phase UPLC analysis; assay type: physicochemical; conditions: read-out: Therm_solubility
[25] = Toxicity in rat assessed as reduction in weight gain at 150 mg/kg, po qd administered for 4 days; assay type: organism-based; conditions: in vivo, 96 h, time 4 day
[26] = Toxicity in rat assessed as fold increase in serum ALT levels at 150 mg/kg, po qd administered for 4 days; assay type: organism-based; conditions: in vivo, 96 h, time 4 day
[27] = Toxicity in rat assessed as body weight loss at 400 mg/kg, po qd administered for 4 days; assay type: organism-based; conditions: in vivo, 96 h, time 4 day
[28] = Toxicity in rat assessed as positive tissue transcriptional score at 40 to 400 mg/kg, po qd administered for 4 days; assay type: organism-based; conditions: in vivo, 96 h, dose 40-400 mg/kg, time 4 day
[29] = Toxicity in rat assessed as induction of liver injury at 40 to 400 mg/kg, po qd administered for 4 days; assay type: organism-based; conditions: in vivo, 96 h, dose 40-400 mg/kg, time 4 day
[30] = Dissociation constant, pKa of the compound; assay type: physicochemical
CYP1A1 = experiment: Toxicity in rat assessed as fold induction of CYP1A1 transcriptional activity in liver at 10 to 75 mg/kg, po bid administered for 4 days relative to control; assay type: organism-based; conditions: dose 10-75 mg/kg, time 4 day, read-out: FC
UGT1A6 = experiment: Toxicity in rat assessed as fold increase in UGT1A6 transcriptional activity in liver at 75 mg/kg, po bid administered for 4 days relative to control; assay type: organism-based; conditions: time 4 day, read-out: FC
[31] = Toxicity in rat assessed as elevation of PXR gene expression at 10 to 75 mg/kg, po bid administered for 4 days; assay type: organism-based; conditions: in vivo, 96 h, dose 10-75 mg/kg, time 4 day
[32] = Toxicity in rat assessed as elevation of inflammatory response related gene expression at 10 to 75 mg/kg, po bid administered for 4 days; assay type: organism-based; conditions: in vivo, 96 h, dose 10-75 mg/kg, time 4 day
[33] = In vivo inhibition of LRRK2 in CD rat assessed as reduction in phosphorylation at Ser935 residue in striatum at 1 mg/kg, po measured after 2 hrs by MSD assay; assay type: functional
[34] = In vivo inhibition of LRRK2 in CD rat assessed as reduction in phosphorylation at Ser935 residue in striatum at 3 mg/kg, po measured after 2 hrs by MSD assay; assay type: functional
[35] = In vivo inhibition of LRRK2 in CD rat assessed as reduction in phosphorylation at Ser935 residue in striatum at 30 mg/kg, po measured after 2 hrs by MSD assay; assay type: functional
[36] = In vivo inhibition of LRRK2 in CD rat assessed as reduction in phosphorylation at Ser935 residue in striatum at 100 mg/kg, po measured after 2 hrs by MSD assay; assay type: functional

Chain of Voltage-gated inwardly rectifying potassium channel KCNH2 (Q12809 whole entry): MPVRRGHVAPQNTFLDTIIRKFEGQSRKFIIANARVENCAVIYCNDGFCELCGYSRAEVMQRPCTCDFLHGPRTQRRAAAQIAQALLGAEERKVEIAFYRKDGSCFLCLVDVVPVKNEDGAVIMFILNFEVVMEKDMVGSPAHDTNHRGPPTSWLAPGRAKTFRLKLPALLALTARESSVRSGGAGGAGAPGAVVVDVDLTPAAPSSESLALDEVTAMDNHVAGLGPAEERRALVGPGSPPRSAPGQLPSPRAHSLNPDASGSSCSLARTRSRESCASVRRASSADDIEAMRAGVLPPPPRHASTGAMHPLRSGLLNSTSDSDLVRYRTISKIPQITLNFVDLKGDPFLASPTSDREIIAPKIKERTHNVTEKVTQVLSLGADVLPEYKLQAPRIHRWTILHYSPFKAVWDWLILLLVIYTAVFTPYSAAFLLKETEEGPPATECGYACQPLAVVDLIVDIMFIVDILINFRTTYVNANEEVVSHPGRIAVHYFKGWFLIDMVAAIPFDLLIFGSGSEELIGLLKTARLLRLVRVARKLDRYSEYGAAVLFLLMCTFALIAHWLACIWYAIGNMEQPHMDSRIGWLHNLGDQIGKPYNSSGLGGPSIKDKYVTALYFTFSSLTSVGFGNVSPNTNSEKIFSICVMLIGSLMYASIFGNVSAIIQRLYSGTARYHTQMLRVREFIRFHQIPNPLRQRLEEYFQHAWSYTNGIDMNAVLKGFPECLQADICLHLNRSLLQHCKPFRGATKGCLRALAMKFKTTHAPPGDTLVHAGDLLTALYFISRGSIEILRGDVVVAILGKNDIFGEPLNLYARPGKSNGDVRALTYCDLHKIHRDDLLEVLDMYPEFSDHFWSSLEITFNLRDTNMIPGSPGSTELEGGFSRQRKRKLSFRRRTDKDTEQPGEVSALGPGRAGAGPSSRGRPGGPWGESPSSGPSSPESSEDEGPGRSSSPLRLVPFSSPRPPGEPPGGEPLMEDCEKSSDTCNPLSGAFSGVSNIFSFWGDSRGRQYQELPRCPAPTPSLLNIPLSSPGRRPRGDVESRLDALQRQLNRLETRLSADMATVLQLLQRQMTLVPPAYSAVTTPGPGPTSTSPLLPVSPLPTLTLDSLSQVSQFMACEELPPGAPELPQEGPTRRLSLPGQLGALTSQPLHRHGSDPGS
Chain of Leucine-rich repeat serine/threonine-protein kinase 2 (Homo sapiens), Q5S007 [G2019S] (Q5S007 whole entry G2019S): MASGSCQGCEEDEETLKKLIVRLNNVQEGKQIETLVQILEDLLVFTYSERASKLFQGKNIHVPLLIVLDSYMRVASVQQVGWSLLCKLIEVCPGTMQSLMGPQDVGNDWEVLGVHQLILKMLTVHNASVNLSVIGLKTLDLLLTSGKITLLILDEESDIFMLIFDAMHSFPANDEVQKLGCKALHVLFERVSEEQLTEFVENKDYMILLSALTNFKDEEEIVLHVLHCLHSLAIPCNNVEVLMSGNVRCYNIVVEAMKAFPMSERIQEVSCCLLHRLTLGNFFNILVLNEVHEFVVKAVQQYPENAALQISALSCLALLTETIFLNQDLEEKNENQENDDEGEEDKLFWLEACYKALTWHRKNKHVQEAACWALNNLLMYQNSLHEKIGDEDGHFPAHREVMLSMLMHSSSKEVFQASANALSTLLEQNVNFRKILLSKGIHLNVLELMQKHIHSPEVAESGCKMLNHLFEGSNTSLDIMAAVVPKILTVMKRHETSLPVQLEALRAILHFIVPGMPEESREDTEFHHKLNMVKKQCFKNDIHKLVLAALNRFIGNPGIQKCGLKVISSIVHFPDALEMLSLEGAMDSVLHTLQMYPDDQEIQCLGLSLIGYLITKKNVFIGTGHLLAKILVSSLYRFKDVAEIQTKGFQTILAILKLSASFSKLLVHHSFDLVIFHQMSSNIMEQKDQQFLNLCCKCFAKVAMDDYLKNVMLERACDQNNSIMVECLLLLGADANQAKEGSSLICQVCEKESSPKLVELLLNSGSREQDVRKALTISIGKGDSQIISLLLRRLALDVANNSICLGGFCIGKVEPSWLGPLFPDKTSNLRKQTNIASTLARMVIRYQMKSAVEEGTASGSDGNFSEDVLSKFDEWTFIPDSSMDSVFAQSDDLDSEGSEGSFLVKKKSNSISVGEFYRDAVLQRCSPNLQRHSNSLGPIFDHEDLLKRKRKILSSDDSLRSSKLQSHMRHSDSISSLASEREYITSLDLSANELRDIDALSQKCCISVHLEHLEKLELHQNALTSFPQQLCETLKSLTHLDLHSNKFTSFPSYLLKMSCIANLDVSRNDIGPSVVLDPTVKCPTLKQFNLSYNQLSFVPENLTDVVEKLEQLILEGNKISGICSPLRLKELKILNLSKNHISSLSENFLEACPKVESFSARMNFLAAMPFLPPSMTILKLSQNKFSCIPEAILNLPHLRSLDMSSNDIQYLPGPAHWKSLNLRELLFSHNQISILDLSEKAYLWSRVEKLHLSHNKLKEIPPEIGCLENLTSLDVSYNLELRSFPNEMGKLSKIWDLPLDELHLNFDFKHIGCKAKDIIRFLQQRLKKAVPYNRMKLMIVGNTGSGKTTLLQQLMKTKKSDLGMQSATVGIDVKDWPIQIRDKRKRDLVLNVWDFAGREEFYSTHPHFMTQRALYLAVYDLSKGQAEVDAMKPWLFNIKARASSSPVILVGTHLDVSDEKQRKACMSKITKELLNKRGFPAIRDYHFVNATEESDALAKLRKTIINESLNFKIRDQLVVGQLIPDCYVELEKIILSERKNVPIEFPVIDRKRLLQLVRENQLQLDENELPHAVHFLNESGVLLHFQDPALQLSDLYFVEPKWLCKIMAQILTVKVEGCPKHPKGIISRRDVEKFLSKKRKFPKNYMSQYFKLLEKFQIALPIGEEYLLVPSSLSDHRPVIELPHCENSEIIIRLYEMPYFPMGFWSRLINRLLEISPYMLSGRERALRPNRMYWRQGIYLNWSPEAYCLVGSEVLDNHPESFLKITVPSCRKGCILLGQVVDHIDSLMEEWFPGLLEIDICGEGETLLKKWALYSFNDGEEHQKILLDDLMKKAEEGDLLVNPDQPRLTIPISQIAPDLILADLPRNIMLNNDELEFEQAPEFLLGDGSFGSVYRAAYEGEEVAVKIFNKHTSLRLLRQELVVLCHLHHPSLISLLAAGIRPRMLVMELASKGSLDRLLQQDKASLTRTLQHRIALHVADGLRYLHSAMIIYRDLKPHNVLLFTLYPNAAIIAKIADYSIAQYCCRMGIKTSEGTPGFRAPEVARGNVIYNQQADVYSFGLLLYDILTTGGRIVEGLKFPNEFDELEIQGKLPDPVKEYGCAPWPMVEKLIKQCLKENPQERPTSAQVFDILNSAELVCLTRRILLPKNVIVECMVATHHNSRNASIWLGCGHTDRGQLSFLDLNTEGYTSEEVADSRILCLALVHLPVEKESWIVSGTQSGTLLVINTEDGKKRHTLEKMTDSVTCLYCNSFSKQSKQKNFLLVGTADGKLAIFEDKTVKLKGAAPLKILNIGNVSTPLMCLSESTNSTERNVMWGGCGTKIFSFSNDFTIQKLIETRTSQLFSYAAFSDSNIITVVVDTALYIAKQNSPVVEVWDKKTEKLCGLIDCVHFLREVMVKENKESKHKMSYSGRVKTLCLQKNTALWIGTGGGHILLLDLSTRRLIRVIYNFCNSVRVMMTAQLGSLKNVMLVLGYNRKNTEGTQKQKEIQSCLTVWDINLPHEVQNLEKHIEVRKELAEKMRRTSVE
Chain of Mitogen-activated protein kinase 3 (P27361 whole entry): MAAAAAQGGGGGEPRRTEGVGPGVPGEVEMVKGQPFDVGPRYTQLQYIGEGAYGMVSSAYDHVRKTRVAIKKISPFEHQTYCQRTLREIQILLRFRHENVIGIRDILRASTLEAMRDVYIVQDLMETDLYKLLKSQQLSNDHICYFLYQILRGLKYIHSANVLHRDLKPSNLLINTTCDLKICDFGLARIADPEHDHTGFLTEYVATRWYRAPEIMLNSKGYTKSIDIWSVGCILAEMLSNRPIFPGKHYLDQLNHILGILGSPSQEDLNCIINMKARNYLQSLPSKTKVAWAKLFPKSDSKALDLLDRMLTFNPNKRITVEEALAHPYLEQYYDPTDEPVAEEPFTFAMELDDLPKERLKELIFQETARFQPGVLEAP
Chain of Substance-P receptor (P25103 whole entry): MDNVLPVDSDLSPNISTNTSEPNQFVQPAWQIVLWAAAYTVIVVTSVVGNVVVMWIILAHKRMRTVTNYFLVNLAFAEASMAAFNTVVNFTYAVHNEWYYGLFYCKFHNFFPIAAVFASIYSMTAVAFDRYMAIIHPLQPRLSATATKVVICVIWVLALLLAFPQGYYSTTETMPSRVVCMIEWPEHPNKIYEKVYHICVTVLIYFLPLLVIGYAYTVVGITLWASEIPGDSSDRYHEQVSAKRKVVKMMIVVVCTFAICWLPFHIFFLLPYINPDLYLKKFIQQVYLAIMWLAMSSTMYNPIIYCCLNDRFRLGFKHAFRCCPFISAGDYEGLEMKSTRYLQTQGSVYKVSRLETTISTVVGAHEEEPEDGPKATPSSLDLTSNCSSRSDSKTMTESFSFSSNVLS
Chain of Leucine-rich repeat serine/threonine-protein kinase 2 (Homo sapiens) (Q5S007 whole entry): as the sequence (Q5S007 whole entry G2019S) above, with S2019G counted along it

Kp uu at 4 h, 2.5 µM [2]: 0.36 | fIC50 [3]: 0.57 nM | efflux ratio at 3 h, up to 1 µM (rat Mdr1a (P-gp) [4]): 3.7 | Papp A→B at 3 h, up to 1 µM (rat Mdr1a (P-gp) [5]): 30 ×10⁻⁶ cm/s | CLint scaled at 0.3 µM [6]: 116 mL/min/kg | CLint scaled at 0.3 µM [7]: 248 mL/min/kg | CL [8]: 1278 mL/min/kg | MRT [9]: 3.9 h | bioavailability [10]: 79% | fIC50 [12]: 1.9 nM | clearance [13]: 9 mL/min/kg | clearance [14]: 21 mL/min/kg | MRT [15]: 5.2 h | MRT [16]: 24 h | Cp(f) [17]: 3.7 nM | Cp(f) [18]: 10.14 nM | IC50 [19]: 1.8 µM | IC50 (Substance-P receptor): 5.7 µM | Kp uu at 96 h [23]: 0.67 | solubility thermodynamic at 24 h [24]: 4 µg/mL (≈ 7.36 µM) | pKa [30]: 5.65
SMILES: O[C@H]1COC[C@H]1N1CC[C@@H](c2cc3nc(Nc4cnn([C@@H]5CC5(F)F)c4Cl)ncc3cc2Cl)[C@H](F)C1
Activity [1]: 2% | IC50 [11]: 9.7 µM | Activity (Salmonella typhimurium): Non-Toxic | Activity [20]: Non-Toxic | Activity [21]: Non-Toxic | Activity [22]: Toxic | Activity [25]: Toxic | fold change (FC) [26]: 2 | Activity [27]: Toxic | Activity [28]: Non-Toxic | Activity [29]: Non-Toxic | fold induction at 96 h (CYP1A1): 3 | fold induction at 96 h (UGT1A6): 2.5 | Activity [31]: Non-Toxic | Activity [32]: Non-Toxic | inhibition in vivo at 1 mg/kg [33]: 7% | inhibition in vivo at 3 mg/kg [34]: 32% | inhibition in vivo at 30 mg/kg [35]: 92% | inhibition in vivo at 100 mg/kg [36]: 97%
